According to publication PMC10569036:

How the values were obtained:
[1] = shake flask on a mixture of 185; loss from the water phase only; LC-Orbitrap peak areas; settings: room
[2] = shake flask on a mixture of 185; loss from the water phase only; LC-QTOF peak areas; settings: room

Row | Structure (SMILES) | log partition 1-octanol / HPLC water, unbuffered, traces of methanol / DMSO [1] | log partition butyl acetate / HPLC water, unbuffered, traces of methanol / DMSO [1] | log partition chloroform / HPLC water, unbuffered, traces of methanol / DMSO [1] | log partition dichloromethane / HPLC water, unbuffered, traces of methanol / DMSO [1] | log partition oleylalcohol / HPLC water, unbuffered, traces of methanol / DMSO [1] | log partition toluene / HPLC water, unbuffered, traces of methanol / DMSO [1] | log partition 1-octanol / HPLC water, unbuffered, traces of methanol / DMSO [2] | log partition butyl acetate / HPLC water, unbuffered, traces of methanol / DMSO [2] | log partition chloroform / HPLC water, unbuffered, traces of methanol / DMSO [2] | log partition dichloromethane / HPLC water, unbuffered, traces of methanol / DMSO [2] | log partition oleylalcohol / HPLC water, unbuffered, traces of methanol / DMSO [2] | log partition toluene / HPLC water, unbuffered, traces of methanol / DMSO [2] | log partition cyclohexane / HPLC water, unbuffered, traces of methanol / DMSO [1] | log partition n-hexane / HPLC water, unbuffered, traces of methanol / DMSO [1] | log partition n-octane / HPLC water, unbuffered, traces of methanol / DMSO [1] | log partition n-undecane / HPLC water, unbuffered, traces of methanol / DMSO [1] | log partition cyclohexane / HPLC water, unbuffered, traces of methanol / DMSO [2] | log partition n-hexane / HPLC water, unbuffered, traces of methanol / DMSO [2] | log partition n-octane / HPLC water, unbuffered, traces of methanol / DMSO [2] | log partition n-undecane / HPLC water, unbuffered, traces of methanol / DMSO [2]
1 | C#CC(C)(C)NC(=O)c1cc(Cl)cc(Cl)c1 | 2.462 log10 | 2.969 log10 | 1.414 log10 | 3 log10 | 2.211 log10 | 2.779 log10 | 2.331 log10 | 2.368 log10 | 2.908 log10 | 2.85 log10 | 2.008 log10 | 2.121 log10 | – | – | – | – | – | – | – | –
2 | CCc1ccc(C(=O)NN(C(=O)c2cc(C)cc(C)c2)C(C)(C)C)cc1 | 1.544 log10 | 1.55 log10 | 1.889 log10 | 1.493 log10 | 0.7925 log10 | 1.17 log10 | 1.362 log10 | 1.733 log10 | 1.756 log10 | 1.824 log10 | 1.649 log10 | 1.989 log10 | 2.061 log10 | 1.296 log10 | 1.432 log10 | 1.36 log10 | 1.284 log10 | 1.035 log10 | 0.9128 log10 | 0.8541 log10
3 | CO/N=C(/C1=NOCCO1)c1ccccc1Oc1ncnc(Oc2ccccc2Cl)c1F | 3.061 log10 | 2.459 log10 | 1.134 log10 | 1.68 log10 | 1.908 log10 | 1.832 log10 | 2.317 log10 | 2.442 log10 | 2.253 log10 | 2.488 log10 | 2.253 log10 | 2.389 log10 | 1.413 log10 | 1.053 log10 | 1.336 log10 | 1.233 log10 | 1.674 log10 | 1.734 log10 | 1.431 log10 | 1.557 log10
4 | O=C(c1ccccc1)c1ccc(O)cc1O | 1.665 log10 | 2.111 log10 | 0.8448 log10 | 1.668 log10 | 1.444 log10 | 0.1696 log10 | 2.033 log10 | 2.368 log10 | 1.568 log10 | 1.235 log10 | 1.696 log10 | 1.076 log10 | -0.5373 log10 | -1.173 log10 | -0.7644 log10 | -1.267 log10 | -0.7702 log10 | -0.7955 log10 | -0.8875 log10 | -0.7905 log10
5 | C[C@H](CCC(=O)O)[C@H]1CC[C@H]2[C@@H]3CC[C@@H]4C[C@H](O)CC[C@]4(C)[C@H]3CC[C@]12C | 1.225 log10 | 0.9932 log10 | 1.423 log10 | 0.6345 log10 | -0.1437 log10 | 0.6204 log10 | 0.06003 log10 | -0.5367 log10 | 0.5205 log10 | 0.7072 log10 | -0.1203 log10 | -1.053 log10 | 0.1846 log10 | -0.08609 log10 | 0.2702 log10 | 0.118 log10 | -1.544 log10 | -1.606 log10 | -1.699 log10 | -0.8435 log10
6 | CC(C)C1(C)N=C(c2nc3ccccc3cc2C(=O)O)NC1=O (stereo not drawn) | 0.3193 log10 | -0.573 log10 | -0.8011 log10 | -0.4847 log10 | -0.2597 log10 | -1.419 log10 | -0.1003 log10 | 0.3218 log10 | -1.426 log10 | -0.4187 log10 | 0.635 log10 | -0.5162 log10 | -1.428 log10 | -1.375 log10 | -1.474 log10 | -1.445 log10 | -1.269 log10 | -0.9732 log10 | -1.466 log10 | -1.153 log10
7 | CC(C)N1C(=O)c2ccccc2NS1(=O)=O | 0.1891 log10 | -1.323 log10 | 1.041 log10 | 0.004436 log10 | -0.1011 log10 | -0.9524 log10 | -1.303 log10 | -1.026 log10 | 0.1169 log10 | 0.3228 log10 | -1.143 log10 | -0.5708 log10 | -0.4548 log10 | -0.9186 log10 | -0.654 log10 | -1.481 log10 | -1.509 log10 | -1.425 log10 | -1.602 log10 | -1.756 log10
